Data published in US20260022143A1, “Cyclic Peptide Inhibitors of IL-23” (JANSSEN PHARMACEUTICA NV, priority 2022, published 2026).
Starred links: 1 amine or outer side, 2 acyl side, 3 side chain; linkers in the order of their positions; H or OH if unused. Positions of bridges follow the written chain, without caps; N, C: chain ends. Non-standard residues stand in square brackets, D forms with d. Residues, ends and D or L forms follow the SMILES beside them. Groups on a side chain read outwards from the residue. *: point of attachment. X80 = COCC[N+](C)(C)CCCCc1cn(-c2ccc(C[C@H](N[*:1])C(=O)[*:2])cc2)nn1; X51 = C[N+](C)(C)CCCc1cn(-c2ccc(C[C@H](N[*:1])C(=O)[*:2])cc2)nn1; Me3N+(CH2)2O(CH2)2O(CH2)2CO = C[N+](C)(C)CCOCCOCCC(=O)*; Trp(7-Me) = Cc1cccc2c(C[C@H](N)C(=O)O)c[nH]c12; Lys(Me3) = C[N+](C)(C)CCCC[C@H](N)C(=O)O; γGlu = O=C(O)[C@H](CCC(=O)[*:2])N[*:1]; 2Nal = N[C@@H](Cc1ccc2ccccc2c1)C(=O)O; 3Pal = N[C@@H](Cc1cccnc1)C(=O)O; Myristoyl = CCCCCCCCCCCCCC(=O)*; Lys(Me) = CNCCCC[C@H](N)C(=O)O; Chg = N[C@H](C(=O)O)C1CCCCC1; NMeK = CN[C@@H](CCCCN)C(=O)O; Pen = CC(C)(S)[C@H](N)C(=O)O; Thp = NC1(C(=O)O)CCOCC1; X3 = C[N+](C)(C)CCCCC*; AEEA = NCCOCCOCC(=O)O; Me2NCH2CH2 = CN(C)CC*; Sar = CNCC(=O)O

Experiment: Exposed Polar Surface Area (EPSA)
Format: physicochemical
Conditions: SFC on Chirex 3014 column; sample 1 mM DMSO stock; read-out: EPSA
Summary of the method: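 Compounds, as 1 mM DMSO stock, were injected in duplicate onto an SFC Chirex 3014 column at 35 °C and eluted with a CO2/methanol (20 mM ammonium formate) gradient. EPSA values in Å^2 were derived from retention times using a linear fit to eight calibration standards, reinjected every 20 compounds.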

SMILES	EPSA
CC(=O)N(C)CCCC[C@H](NC(=O)C1(NC(=O)[C@H](Cc2ccc3ccccc3c2)NC(=O)[C@H](Cc2ccc(OCCCCC[N+](C)(C)C)cc2)NC(=O)[C@H]2NC(=O)[C@H](CCC(=O)N(C)C)NC(=O)[C@H](Cc3c[nH]c4c(C)cccc34)NC(=O)[C@H]([C@@H](C)O)NC(=O)[C@H](CC(=O)N(C)C)NC(=O)[C@@H](NC(=O)CCOCCOCC[N+](C)(C)C)C(C)(C)SSC2(C)C)CCOCC1)C(=O)N[C@@H](CC(N)=O)C(=O)N[C@@H](Cc1cccnc1)C(=O)N(C)CC(=O)N(C)C [compound 312, cPEG3aCO-Pen(3)-N(N(Me)2)-T-7MeW-Q(N(Me)2)-Pen(3)-TMAPF-2Nal-THP-K(NMeAC)-N-3Pya-Sar-CON(Me)2] ({Me3N+(CH2)2O(CH2)2O(CH2)2CO}-[Pen]D(NMe2)T[Trp(7-Me)]E(NMe2)[Pen]Y(X3)[2Nal][Thp][Lys(Me)](Ac)N[3Pal][Sar]-NMe2; disulfide 1-6)	151 A^2
CC(=O)N(C)CCCC[C@@H]1NC(=O)[C@H](Cc2c[nH]c3c(C)cccc23)NC(=O)[C@H]([C@@H](C)O)NC(=O)[C@H](CC(=O)N(C)C)NC(=O)[C@@H](NC(=O)CCOCCOCC[N+](C)(C)C)C(C)(C)SSC(C)(C)[C@@H](C(=O)N[C@@H](Cc2ccc(OCCCCC[N+](C)(C)C)cc2)C(=O)N[C@@H](Cc2ccc3ccccc3c2)C(=O)NC2(C(=O)N[C@@H](C)C(=O)N[C@@H](CC(N)=O)C(=O)N[C@@H](Cc3cccnc3)C(=O)N(C)CC(=O)N(C)C)CCOCC2)NC1=O [compound 316, cPEG3aCO-Pen(3)-N(N(Me)2)-T-7MeW-K(NMeAc)-Pen(3)-TMAPF-2Nal-THP-A-N-3Pya-Sar-CON(Me)2] ({Me3N+(CH2)2O(CH2)2O(CH2)2CO}-[Pen]D(NMe2)T[Trp(7-Me)][Lys(Me)](Ac)[Pen]Y(X3)[2Nal][Thp]AN[3Pal][Sar]-NMe2; disulfide 1-6)	154 A^2
CC(=O)NCCCC[C@@H]1NC(=O)[C@H](Cc2c[nH]c3c(C)cccc23)NC(=O)[C@H]([C@@H](C)O)NC(=O)[C@H](CC(N)=O)NC(=O)[C@@H](NC(=O)CCOCCOCC[N+](C)(C)C)C(C)(C)SSC(C)(C)[C@@H](C(=O)N[C@@H](Cc2ccc(OCCCCC[N+](C)(C)C)cc2)C(=O)N[C@@H](Cc2ccc3ccccc3c2)C(=O)NC2(C(=O)N[C@@H](C)C(=O)N[C@@H](CC(N)=O)C(=O)N[C@@H](Cc3cccnc3)C(=O)N(C)CC(=O)N(C)C)CCOCC2)NC1=O [compound 317, cPEG3aCO-Pen(3)-N-T-7MeW-K(Ac)-Pen(3)-TMAPF-2Nal-THP-A-N-3Pya-Sar-CON(Me)2] ({Me3N+(CH2)2O(CH2)2O(CH2)2CO}-[Pen]NT[Trp(7-Me)]K(Ac)[Pen]Y(X3)[2Nal][Thp]AN[3Pal][Sar]-NMe2; disulfide 1-6)	158 A^2
CC(=O)N(C)CCCC[C@@H]1NC(=O)[C@H](Cc2c[nH]c3c(C)cccc23)NC(=O)[C@H]([C@@H](C)O)NC(=O)[C@H](CC(=O)N(C)C)NC(=O)[C@@H](NC(=O)CCOCCOCC[N+](C)(C)C)C(C)(C)SSC(C)(C)[C@@H](C(=O)N[C@@H](Cc2ccc(OCCN(C)C)cc2)C(=O)N[C@@H](Cc2ccc3ccccc3c2)C(=O)NC2(C(=O)N[C@@H](CCCCN(C)C(C)=O)C(=O)N[C@@H](CC(N)=O)C(=O)N[C@@H](Cc3cccnc3)C(=O)N(C)CC(=O)N(C)C)CCOCC2)NC1=O [compound 321, cPEG3aCO-Pen(3)-N(N(Me)2)-T-7MeW-K(NMeAc)-Pen(3)-AEF(N(Me)2)-2Nal-THP-K(NMeAc)-N-3Pya-Sar-CON(Me)2] ({Me3N+(CH2)2O(CH2)2O(CH2)2CO}-[Pen]D(NMe2)T[Trp(7-Me)][Lys(Me)](Ac)[Pen]Y(Me2NCH2CH2)[2Nal][Thp][Lys(Me)](Ac)N[3Pal][Sar]-NMe2; disulfide 1-6)	153 A^2
CC(=O)N(C)CCCC[C@H](NC(=O)C1(NC(=O)[C@H](Cc2ccc3ccccc3c2)NC(=O)[C@H](Cc2ccc(OCCCCC[N+](C)(C)C)cc2)NC(=O)[C@H]2NC(=O)[C@H](CCCC[N+](C)(C)C)NC(=O)[C@H](Cc3c[nH]c4c(C)cccc34)NC(=O)[C@H]([C@@H](C)O)NC(=O)[C@H](CC(=O)N(C)C)NC(=O)[C@@H](NC(=O)CCOCCOCC[N+](C)(C)C)C(C)(C)SSC2(C)C)CCOCC1)C(=O)N[C@@H](CC(N)=O)C(=O)N[C@@H](Cc1cccnc1)C(=O)N(C)CC(=O)N(C)C [compound 329, cPEG3aCO-Pen(3)-N(N(Me)2)-T-7MeW-K(Me)3-Pen(3)-TMAPF-2Nal-THP-K(NMeAc)-N-3Pya-Sar-CON(Me)2] ({Me3N+(CH2)2O(CH2)2O(CH2)2CO}-[Pen]D(NMe2)T[Trp(7-Me)][Lys(Me3)][Pen]Y(X3)[2Nal][Thp][Lys(Me)](Ac)N[3Pal][Sar]-NMe2; disulfide 1-6)	155 A^2
CC(=O)N(C)CCCC[C@@H]1NC(=O)[C@H](Cc2c[nH]c3c(C)cccc23)NC(=O)[C@H]([C@@H](C)O)NC(=O)[C@H](CC(=O)N(C)C)NC(=O)[C@@H](NC(=O)CCOCCOCC[N+](C)(C)C)C(C)(C)SSC(C)(C)[C@@H](C(=O)N[C@@H](Cc2ccc(-n3cc(CCC[N+](C)(C)C)nn3)cc2)C(=O)N[C@@H](Cc2ccc3ccccc3c2)C(=O)NC2(C(=O)N[C@@H](CCCCN(C)C(C)=O)C(=O)N[C@@H](CC(N)=O)C(=O)N[C@@H](Cc3cccnc3)C(=O)N(C)CC(=O)N(C)C)CCOCC2)NC1=O [compound 334, cPEG3aCO-Pen(3)-N(N(Me)2)-T-7MeW-K(NMeAc)-Pen(3)-F(4TzlTMA3)-2Nal-THP-K(NMeAc)-N-3Pya-Sar-CON(Me)2] ({Me3N+(CH2)2O(CH2)2O(CH2)2CO}-[Pen]D(NMe2)T[Trp(7-Me)][Lys(Me)](Ac)[Pen][X51][2Nal][Thp][Lys(Me)](Ac)N[3Pal][Sar]-NMe2; disulfide 1-6 (inferred))	155 A^2
COCC[N+](C)(C)CCCCc1cn(-c2ccc(C[C@H](NC(=O)[C@H]3NC(=O)[C@H](CCCCN(C)C(C)=O)NC(=O)[C@H](Cc4c[nH]c5c(C)cccc45)NC(=O)[C@H]([C@@H](C)O)NC(=O)[C@H](CC(=O)N(C)C)NC(=O)[C@@H](NC(=O)CCOCCOCC[N+](C)(C)C)C(C)(C)SSC3(C)C)C(=O)N[C@@H](Cc3ccc4ccccc4c3)C(=O)NC3(C(=O)N[C@@H](CCCCN(C)C(C)=O)C(=O)N[C@@H](CC(N)=O)C(=O)N[C@@H](Cc4cccnc4)C(=O)N(C)CC(=O)N(C)C)CCOCC3)cc2)nn1 [compound 337, cPEG3aCO-Pen(3)-N(N(Me)2)-T-7MeW-K(NMeAc)-Pen(3)-F(4TzlDMA4mPEG)-2Nal-THP-K(NMeAc)-N-3Pya-Sar-CON(Me)2] ({Me3N+(CH2)2O(CH2)2O(CH2)2CO}-[Pen]D(NMe2)T[Trp(7-Me)][Lys(Me)](Ac)[Pen][X80][2Nal][Thp][Lys(Me)](Ac)N[3Pal][Sar]-NMe2; disulfide 1-6)	152 A^2
CC(=O)N(C)CCCC[C@@H]1NC(=O)[C@H](Cc2c[nH]c3c(C)cccc23)NC(=O)[C@H]([C@@H](C)O)NC(=O)[C@H](CC(=O)N(C)C)NC(=O)[C@@H](NC(=O)CCOCCOCC[N+](C)(C)C)C(C)(C)SSC(C)(C)[C@@H](C(=O)N[C@@H](Cc2ccc(OCCCCC[N+](C)(C)C)cc2)C(=O)N[C@@H](Cc2ccc3ccccc3c2)C(=O)N[C@H](C(=O)N[C@@H](CCCCN(C)C(C)=O)C(=O)N[C@@H](CC(N)=O)C(=O)N[C@@H](Cc2cccnc2)C(=O)N(C)CC(=O)N(C)C)C2CCCCC2)NC1=O [compound 340, cPEG3aCO-Pen(3)-N(N(Me)2)-T-7MeW-K(NMeAc)-Pen(3)-TMAPF-2Nal-Chg-K(NMeAc)-N-3Pya-Sar-CON(Me)2] ({Me3N+(CH2)2O(CH2)2O(CH2)2CO}-[Pen]D(NMe2)T[Trp(7-Me)][Lys(Me)](Ac)[Pen]Y(X3)[2Nal][Chg][Lys(Me)](Ac)N[3Pal][Sar]-NMe2; disulfide 1-6)	155 A^2
CC(=O)N[C@H](CCCNC(=N)N)C(=O)N[C@@H]1C(=O)N[C@@H](CC(=O)N(C)C)C(=O)N[C@@H]([C@@H](C)O)C(=O)N[C@@H](Cc2c[nH]c3c(C)cccc23)C(=O)N[C@@H](CCCCN(C)C(C)=O)C(=O)N[C@H](C(=O)N[C@@H](Cc2ccc(OCCCCC[N+](C)(C)C)cc2)C(=O)N[C@@H](Cc2ccc3ccccc3c2)C(=O)NC2(C(=O)N[C@@H](CCCCN(C)C(C)=O)C(=O)N[C@@H](CC(N)=O)C(=O)N[C@@H](Cc3cccnc3)C(=O)N(C)CC(=O)N(C)C)CCOCC2)C(C)(C)SSC1(C)C [compound 345, MeCO-r-Pen(3)-N(N(Me)2)-T-7MeW-K(NMeAc)-Pen(3)-TMAPF-2Nal-THP-K(NMeAc)-N-3Pya-Sar-CON(Me)2] (Ac-[dR][Pen]D(NMe2)T[Trp(7-Me)][Lys(Me)](Ac)[Pen]Y(X3)[2Nal][Thp][Lys(Me)](Ac)N[3Pal][Sar]-NMe2; disulfide 2-7)	162 A^2
CCCCCCCCCCCCCC(=O)N[C@@H](CCC(=O)NCCOCCOCC(=O)NCCOCCOCC(=O)NCCCC[C@@H](NC(=O)CCOCCOCC[N+](C)(C)C)C(=O)N[C@@H]1C(=O)N[C@@H](CC(=O)N(C)C)C(=O)N[C@@H]([C@@H](C)O)C(=O)N[C@@H](Cc2c[nH]c3c(C)cccc23)C(=O)N[C@@H](CCCCNC(C)=O)C(=O)N[C@H](C(=O)N[C@@H](Cc2ccc(OCCCCC[N+](C)(C)C)cc2)C(=O)N[C@@H](Cc2ccc3ccccc3c2)C(=O)NC2(C(=O)N[C@@H](CCCCN(C)C(C)=O)C(=O)N[C@@H](CC(N)=O)C(=O)N[C@@H](Cc3cccnc3)C(=O)N(C)[C@@H](CCCCNC(=O)COCCOCCNC(=O)COCCOCCNC(=O)CC[C@H](NC(=O)CCCCCCCCCCCCC)C(=O)O)C(N)=O)CCOCC2)C(C)(C)SSC1(C)C)C(=O)O [compound 347, cPEG3aCO-k(PEG2PEG2gEC14)-Pen(3)-N(N(Me)2)-T-7MeW-K(Ac)-Pen(3)-TMAPF-2Nal-THP-K(NMeac)-N-3Pya-NMeK(PEG2PEG2gEC14)-CONH2] ({Me3N+(CH2)2O(CH2)2O(CH2)2CO}-[dK]([AEEA-AEEA-γGlu-Myristoyl])[Pen]D(NMe2)T[Trp(7-Me)]K(Ac)[Pen]Y(X3)[2Nal][Thp][Lys(Me)](Ac)N[3Pal][NMeK]([AEEA-AEEA-γGlu-Myristoyl])-NH2; disulfide 2-7)	187 A^2
